From the NIST ThermoML archive (doi:10.1021/je034087q)

Test: xn = mol fraction of the nth substance listed

CC(C)=O [acetone] + O=C=O
Details | mass density [kg/m3]
318.15 K, 8180 kPa, Fluid (supercritical or subcritical phases), x2 = 0.902 | 715
318.15 K, 8410 kPa, Fluid (supercritical or subcritical phases), x2 = 0.902 | 722
318.15 K, 8570 kPa, Fluid (supercritical or subcritical phases), x2 = 0.902 | 726
318.15 K, 8810 kPa, Fluid (supercritical or subcritical phases), x2 = 0.902 | 732
318.15 K, 8960 kPa, Fluid (supercritical or subcritical phases), x2 = 0.902 | 735
318.15 K, 9180 kPa, Fluid (supercritical or subcritical phases), x2 = 0.902 | 738
318.15 K, 9410 kPa, Fluid (supercritical or subcritical phases), x2 = 0.902 | 744
318.15 K, 9570 kPa, Fluid (supercritical or subcritical phases), x2 = 0.902 | 746
318.15 K, 9780 kPa, Fluid (supercritical or subcritical phases), x2 = 0.902 | 751
318.15 K, 9900 kPa, Fluid (supercritical or subcritical phases), x2 = 0.902 | 754
318.15 K, 10070 kPa, Fluid (supercritical or subcritical phases), x2 = 0.902 | 756
318.15 K, 10330 kPa, Fluid (supercritical or subcritical phases), x2 = 0.902 | 757
318.15 K, 10540 kPa, Fluid (supercritical or subcritical phases), x2 = 0.902 | 763
318.15 K, 10770 kPa, Fluid (supercritical or subcritical phases), x2 = 0.902 | 766
318.15 K, 10970 kPa, Fluid (supercritical or subcritical phases), x2 = 0.902 | 770
318.15 K, 11190 kPa, Fluid (supercritical or subcritical phases), x2 = 0.902 | 774
318.15 K, 11500 kPa, Fluid (supercritical or subcritical phases), x2 = 0.902 | 776
318.15 K, 11830 kPa, Fluid (supercritical or subcritical phases), x2 = 0.902 | 781
318.15 K, 12140 kPa, Fluid (supercritical or subcritical phases), x2 = 0.902 | 785
318.15 K, 12450 kPa, Fluid (supercritical or subcritical phases), x2 = 0.902 | 789
318.15 K, 12710 kPa, Fluid (supercritical or subcritical phases), x2 = 0.902 | 793
318.15 K, 13050 kPa, Fluid (supercritical or subcritical phases), x2 = 0.902 | 795
318.15 K, 13370 kPa, Fluid (supercritical or subcritical phases), x2 = 0.902 | 798
318.15 K, 13700 kPa, Fluid (supercritical or subcritical phases), x2 = 0.902 | 803
318.15 K, 14060 kPa, Fluid (supercritical or subcritical phases), x2 = 0.902 | 807
318.15 K, 14370 kPa, Fluid (supercritical or subcritical phases), x2 = 0.902 | 809
318.15 K, 14610 kPa, Fluid (supercritical or subcritical phases), x2 = 0.902 | 812
318.15 K, 14870 kPa, Fluid (supercritical or subcritical phases), x2 = 0.902 | 815
318.15 K, Liquid, Other PVT measurement, x2 = 0.902 | 709
323.15 K, 1690 kPa, Fluid (supercritical or subcritical phases), x2 = 0.186 | 764
323.15 K, 2050 kPa, Fluid (supercritical or subcritical phases), x2 = 0.186 | 767
323.15 K, 2920 kPa, Fluid (supercritical or subcritical phases), x2 = 0.186 | 770
323.15 K, 4190 kPa, Fluid (supercritical or subcritical phases), x2 = 0.383 | 789
323.15 K, 4500 kPa, Fluid (supercritical or subcritical phases), x2 = 0.186 | 772
323.15 K, 5090 kPa, Fluid (supercritical or subcritical phases), x2 = 0.576 | 798
323.15 K, 5870 kPa, Fluid (supercritical or subcritical phases), x2 = 0.383 | 795
323.15 K, 6050 kPa, Fluid (supercritical or subcritical phases), x2 = 0.186 | 775
323.15 K, 6120 kPa, Fluid (supercritical or subcritical phases), x2 = 0.576 | 802
323.15 K, 7330 kPa, Fluid (supercritical or subcritical phases), x2 = 0.186 | 777
323.15 K, 7430 kPa, Fluid (supercritical or subcritical phases), x2 = 0.576 | 810
323.15 K, 7470 kPa, Fluid (supercritical or subcritical phases), x2 = 0.772 | 783
323.15 K, 7570 kPa, Fluid (supercritical or subcritical phases), x2 = 0.811 | 760
323.15 K, 7780 kPa, Fluid (supercritical or subcritical phases), x2 = 0.811 | 764
323.15 K, 7880 kPa, Fluid (supercritical or subcritical phases), x2 = 0.383 | 800
323.15 K, 7930 kPa, Fluid (supercritical or subcritical phases), x2 = 0.772 | 787
323.15 K, 7930 kPa, Fluid (supercritical or subcritical phases), x2 = 0.811 | 769
323.15 K, 8250 kPa, Fluid (supercritical or subcritical phases), x2 = 0.882 | 703
323.15 K, 8280 kPa, Fluid (supercritical or subcritical phases), x2 = 0.811 | 774
323.15 K, 8420 kPa, Fluid (supercritical or subcritical phases), x2 = 0.772 | 792
323.15 K, 8500 kPa, Fluid (supercritical or subcritical phases), x2 = 0.882 | 712
323.15 K, 8620 kPa, Fluid (supercritical or subcritical phases), x2 = 0.811 | 778
323.15 K, 8630 kPa, Fluid (supercritical or subcritical phases), x2 = 0.882 | 716
323.15 K, 8710 kPa, Fluid (supercritical or subcritical phases), x2 = 0.186 | 781
323.15 K, 8750 kPa, Fluid (supercritical or subcritical phases), x2 = 0.902 | 678
323.15 K, 8790 kPa, Fluid (supercritical or subcritical phases), x2 = 0.882 | 719
323.15 K, 8860 kPa, Fluid (supercritical or subcritical phases), x2 = 0.933 | 586
323.15 K, 8880 kPa, Fluid (supercritical or subcritical phases), x2 = 0.933 | 590
323.15 K, 8920 kPa, Fluid (supercritical or subcritical phases), x2 = 0.902 | 683
323.15 K, 8930 kPa, Fluid (supercritical or subcritical phases), x2 = 0.882 | 721
323.15 K, 8930 kPa, Fluid (supercritical or subcritical phases), x2 = 0.933 | 594
323.15 K, 8960 kPa, Fluid (supercritical or subcritical phases), x2 = 0.576 | 813
323.15 K, 8970 kPa, Fluid (supercritical or subcritical phases), x2 = 0.772 | 796
323.15 K, 8980 kPa, Fluid (supercritical or subcritical phases), x2 = 0.952 | 495
323.15 K, 8990 kPa, Fluid (supercritical or subcritical phases), x2 = 0.933 | 601
323.15 K, 9000 kPa, Fluid (supercritical or subcritical phases), x2 = 0.948 | 540
323.15 K, 9000 kPa, Fluid (supercritical or subcritical phases), x2 = 0.952 | 497
323.15 K, 9020 kPa, Fluid (supercritical or subcritical phases), x2 = 0.902 | 687
323.15 K, 9030 kPa, Fluid (supercritical or subcritical phases), x2 = 0.952 | 502
323.15 K, 9040 kPa, Fluid (supercritical or subcritical phases), x2 = 0.933 | 606
323.15 K, 9060 kPa, Fluid (supercritical or subcritical phases), x2 = 0.948 | 549
323.15 K, 9060 kPa, Fluid (supercritical or subcritical phases), x2 = 0.952 | 505
323.15 K, 9090 kPa, Fluid (supercritical or subcritical phases), x2 = 0.952 | 510
323.15 K, 9100 kPa, Fluid (supercritical or subcritical phases), x2 = 0.933 | 613
323.15 K, 9110 kPa, Fluid (supercritical or subcritical phases), x2 = 0.882 | 728
323.15 K, 9120 kPa, Fluid (supercritical or subcritical phases), x2 = 0.948 | 559
323.15 K, 9120 kPa, Fluid (supercritical or subcritical phases), x2 = 0.952 | 514
323.15 K, 9140 kPa, Fluid (supercritical or subcritical phases), x2 = 0.952 | 519
323.15 K, 9160 kPa, Fluid (supercritical or subcritical phases), x2 = 0.902 | 690
323.15 K, 9170 kPa, Fluid (supercritical or subcritical phases), x2 = 0.952 | 523
323.15 K, 9180 kPa, Fluid (supercritical or subcritical phases), x2 = 0.933 | 618
323.15 K, 9190 kPa, Fluid (supercritical or subcritical phases), x2 = 0.952 | 527
323.15 K, 9200 kPa, Fluid (supercritical or subcritical phases), x2 = 0.948 | 568
323.15 K, 9220 kPa, Fluid (supercritical or subcritical phases), x2 = 0.952 | 531
323.15 K, 9240 kPa, Fluid (supercritical or subcritical phases), x2 = 0.933 | 624
323.15 K, 9250 kPa, Fluid (supercritical or subcritical phases), x2 = 0.952 | 537
323.15 K, 9270 kPa, Fluid (supercritical or subcritical phases), x2 = 0.902 | 694
323.15 K, 9290 kPa, Fluid (supercritical or subcritical phases), x2 = 0.952 | 541
323.15 K, 9300 kPa, Fluid (supercritical or subcritical phases), x2 = 0.948 | 579
323.15 K, 9320 kPa, Fluid (supercritical or subcritical phases), x2 = 0.952 | 546
323.15 K, 9330 kPa, Fluid (supercritical or subcritical phases), x2 = 0.933 | 630
323.15 K, 9350 kPa, Fluid (supercritical or subcritical phases), x2 = 0.811 | 787
323.15 K, 9350 kPa, Fluid (supercritical or subcritical phases), x2 = 0.952 | 550
323.15 K, 9380 kPa, Fluid (supercritical or subcritical phases), x2 = 0.882 | 732
323.15 K, 9380 kPa, Fluid (supercritical or subcritical phases), x2 = 0.952 | 556
323.15 K, 9400 kPa, Fluid (supercritical or subcritical phases), x2 = 0.902 | 699
323.15 K, 9410 kPa, Fluid (supercritical or subcritical phases), x2 = 0.933 | 637
323.15 K, 9410 kPa, Fluid (supercritical or subcritical phases), x2 = 0.948 | 590
323.15 K, 9430 kPa, Fluid (supercritical or subcritical phases), x2 = 0.952 | 561
323.15 K, 9450 kPa, Fluid (supercritical or subcritical phases), x2 = 0.772 | 798
323.15 K, 9480 kPa, Fluid (supercritical or subcritical phases), x2 = 0.952 | 567
323.15 K, 9520 kPa, Fluid (supercritical or subcritical phases), x2 = 0.902 | 702
323.15 K, 9520 kPa, Fluid (supercritical or subcritical phases), x2 = 0.933 | 642
323.15 K, 9520 kPa, Fluid (supercritical or subcritical phases), x2 = 0.952 | 571
323.15 K, 9540 kPa, Fluid (supercritical or subcritical phases), x2 = 0.948 | 602
323.15 K, 9560 kPa, Fluid (supercritical or subcritical phases), x2 = 0.383 | 803
323.15 K, 9560 kPa, Fluid (supercritical or subcritical phases), x2 = 0.952 | 578
323.15 K, 9620 kPa, Fluid (supercritical or subcritical phases), x2 = 0.952 | 582
323.15 K, 9630 kPa, Fluid (supercritical or subcritical phases), x2 = 0.933 | 649
323.15 K, 9650 kPa, Fluid (supercritical or subcritical phases), x2 = 0.882 | 736
323.15 K, 9660 kPa, Fluid (supercritical or subcritical phases), x2 = 0.948 | 613
